In test [1] the test system is biofilms formed from native saliva on hydroxyapatite (HAP) disks. Kind of test: Active-attachment biofilm model, colony forming units (live counts). Type of test: cell-based. The note with it: for number of CFUs relative to control solutions (water) and variable groups: Example 4; for number of CFUs relative to control solutions (water) and variable groups / Log CFU/ml: solutions; for Log CFU/ml: Example 4 (serine, lysine, with or without zinc). The method, then:
(§1) The active-attachment biofilm model has been previously described by Extercate et al. Caries Research 2010; 44: 372-379, the contents of which are incorporated by reference herein. The biofilm model consists of a metal lid with 24 clamps carrying hydroxyapatite (HAP) disks. The model is inoculated in 24-well plates with native saliva. Biofilms were formed via active recruitment of bacteria onto free-hanging HAP disks.
(§2) Treatment is performed after formation of a 24 h biofilm. Lactic acid production is determined to assess the residual metabolic activity of biofilms after repeated exposure to test products. The assay is conducted using a L-Lactate Assay Kit according to the manufacturer's protocol (Cayman Chemical Company, Cat. No. 700510).
Colony forming units (CFUs) are determined to assess the anti-bacterial efficacy of test solutions after repeated exposure to biofilms. HAP disks are removed from the lid and transferred to 1.5 ml CPW for sonication. CFUs are determined by colony counting. Statistical analysis was performed using Minitab 16 Software. ANOVA and Tukey test were performed on available CFU counts and lactic acid values.
Anti-bacterial efficacy of arginine alone and in combination with zinc in solutions and in toothpastes is tested by live counts using the biofilm model described in Example 1. The approximate number of live counts (CFUs) are as follows: […]

Test [2] has the same test system. Description: Active-attachment biofilm model, lactic acid production (residual metabolic activity). The format is cell-based. The conditions noted are these: for metabolic activity relative to control groups (water) and variable groups: Example 5. The method, then: as §1, §2
The anti-metabolic activity of arginine alone and combined with zinc on bacteria in solutions and in toothpastes is measured by lactic acid production during a 3-hour window after the last treatment. The bacterial metabolic activity, as measured by lactic acid production, decreases in (toothpaste) groups with:
The antibacterial activity of serine and lysine is assessed individually and in combination with zinc and determined by lactic acid production during a 3-hour window after the last treatment according to Example 1.
The anti-metabolic activity of serine and lysine individually, and in combination with zinc, are tested. Using the biofilm model described in Example 1, antibacterial activity of serine and lysine is tested individually and in combination with zinc.

Where [3] appears, read: solution, lactic acid production during a 3-hour window after the last treatment.
The mark [4] stands for this setting: solutions, Example 5 (serine, lysine, with or without zinc).

On to `[O-2].[Zn+2]` [0.5% zinc oxide, zinc oxide], for which the CFU/ml in test [1] (solution, live counts, biofilm model of Example 1) is 9.65 Log CFU/ml. Also, the “Lactate” value in test [2] (setting [3]) is on record as 6.25 mM.

In the case of `O=C([O-])CC(O)(CC(=O)[O-])C(=O)[O-].O=C([O-])CC(O)(CC(=O)[O-])C(=O)[O-].[Zn+2].[Zn+2].[Zn+2]` [0.25% zinc citrate, zinc citrate], in test [2] (setting [3]), the “Lactate” value was 6.0 mM.

With `NCCCC[C@H](N)C(=O)O` [4% lysine, lysine], in test [1], the “number of CFUs relative to control solutions (water) and variable groups” value is reported as “do not demonstrate a decrease”; the “Log CFU/ml” value is reported as 9.37 Log CFU/ml. The “metabolic activity relative to control groups (water) and variable groups” value in test [2] (solutions) is on record as “do not demonstrate a decrease in metabolic activity”. Besides, in test [2] (setting [4]), the “Lactate” value turned out to be 2.7 mM.

Consider `N[C@@H](CO)C(=O)O` [4% serine, serine], for which, in test [1], the “number of CFUs relative to control solutions (water) and variable groups” value was “do not demonstrate a decrease”; the “Log CFU/ml” value is 9.45 Log CFU/ml. In addition, the “metabolic activity relative to control groups (water) and variable groups” value in test [2] (solutions) is on record as “do not demonstrate a decrease in metabolic activity”. Besides, in test [2] (setting [4]), the “Lactate” value worked out at 2.4 mM.

The values above are taken from patent US20180021234A1, “Oral Care Compositions and Methods of Use” (Colgate-Palmolive Company, priority 2015, published 2018).
